In paper PMC10635799, “Analogs of FTY720 inhibit TRPM7 but not S1PRs and exert multimodal anti-inflammatory effects” (The Journal of General Physiology, 2023):

Columns and labels:
alveolar macrophages = test: LPS-induced cytokine expression in primary alveolar macrophages (qRT-PCR); format: cell-based, mouse; conditions: 10 µM pretreatment, LPS 1 µg/ml for 3 h
Method: Alveolar macrophages were isolated and cultured from wildtype (WT) C57BL/6 mice (Strain #000664; Jackson Laboratory) using an established protocol ([Nayak et al., 2018]). […] Using a 5-ml syringe filled with 3 ml of bronchoalveolar lavage buffer (“BAL buffer”: Ca^2+- and Mg^2+-free PBS + 1 mM EDTA), the lungs were first filled with ∼2 ml of BAL buffer, then flushed five times in a cycle involving the installation and removal of 1 ml of buffer. The collected BAL fluid was pooled and the cyclical perfusion step was repeated with fresh buffer until a total of ∼10 ml of BAL fluid was collected. BAL fluid with gross evidence of blood contamination was discarded. A pellet was obtained through centrifugation at 500 × g for 5 min, and contaminating red blood cells were lysed by resuspending cells for 5 min in 5 ml of ice-cold ACK Lysis buffer (A1049201; Gibco). The cells were then pelleted at 500 × g for 5 min, resuspended in alveolar macrophage culture media (DMEM supplemented with 10% FBS, 20% L-929 culture supernatant, 1 mM sodium pyruvate, 10 mM HEPES, and 1× penicillin/streptomycin), and plated onto untreated tissue culture dishes for 24 h. The media was exchanged prior to use to remove unattached cells.
RAW 264.7 macrophages or BMDMs were seeded at a density of 250,000 cells per well into a 12-well tissue culture plate in 1 ml of media and left to incubate overnight. The indicated drug or vehicle control was added to each well, and the plate was agitated and left to incubate for 10 min. […] Cells were washed with PBS and then RNA isolation was performed using RNeasy Plus Micro Kit (74134; Qiagen). cDNA was produced using GoScript Reverse Transcriptase (A5004; Promega) and a quantitative PCR was performed using SensiFast SYBR (98020; Bioline) and Bio-Rad CFX Connect thermocycler. […] Fold-changes are all reported relative to untreated controls for each experiment and were calculated using the ∆∆Ct method, with β2-microglobulin used as the housekeeping gene for each sample. […]

[1] = system: LPS-induced endotoxemia in mice; test: Lethal dose (LD50) LPS mouse model; format: in vivo; conditions: LD50 LPS + 30 mg/kg

For `CCCCCCCCc1ccc([C@@H]2CC[C@@](N)(CO)C2)cc1` [VPC01091.4, ((1S,3R)-1-amino-3-(4-octylphenyl)cyclopentyl)methanol], the “LPS-induced CCL4 expression” value (alveolar macrophages) was “significantly suppressed”, the “LPS-induced IL-1β expression” value (alveolar macrophages) was “significantly suppressed” and the “LPS-induced TNFα expression” value (alveolar macrophages) was “significantly suppressed”. The Survival rate ([1]; 132 h, LPS-only 50%, control 100%, P = 0.127) was 83.33%, the “Clinical scores (symptoms)” value ([1]; vs LPS only, 132 h) was “significantly reduced at a number of timepoints” and the “Weight change from baseline” value ([1]; vs LPS only, after first 48 h) was “recovering at a higher nadir and at an earlier timepoint”.
